Tests used:
[1] = test system: α2 adrenergic receptors of the central nervous system; test: inhibition of the antihypertensive action of clonidine in spontaneously hypertensive rats (SHR); assay type: in vivo, rat; details: 1 mg/kg p.o., clonidine 50 μg/kg s.c.
Experimental: In the first study, carried out upon unanaesthetized spontaneously hypertensive rats (SHR rats), the ability of the compounds of the present invention to inhibit the antihypertensive action of clonidine was determined.
The antihypertensive activity of clonidine results from an interaction with α2 adrenergic receptors of the central nervous system, i.e., central antihypertensive actions.
In this test, two groups of SHR rats are utilized as follows. In the first group, prior to subcutaneous administration of clonidine (50 μg/kg), the SHR rats are treated with the compound to be tested (1 mg/kg p.o.) dissolved in a saline vehicle. The second group (control group) of SHR rats are treated with the saline vehicle only, prior to subcutaneous administration of clonidine.
The arterial pressure is measured in the region of the median coccygeal artery according to the method of J. Roba, A. F. DeSchaepdrijver, Exp. Anim., 4, 147-162 (1971).
The results of this assay summarized in Table II, column 5, are expressed as a percentage of inhibition of the effect of clonidine.

[2] = test system: α1 -adrenergic receptors; test: binding to α1-adrenergic receptors on rat brain homogenates (3H-WB 4101); details: 1.6 nM 3H-WB 4101
Experimental: (§1) The activity of the compounds according to the invention with respect to binding of the α-adrenergic receptors was determined in vitro according to a method deriving from the works of B. R. Rouot et al., Life Sci., 25, 769 (1979) and of D. U'Prichard et al., Mol. Pharmacol., 13, 454 (1977). This method consists in measuring the binding to the receptor on rat brain homogenates, by marking by means of a specific tritriated ligand placed in competition with the product to be tested.
(§2) In the presenct case the binding to the α1 -adrenergic receptors was measured by means of 1.6 nM of ^3 H-WB 4101 and the binding to the α2 -adrenergic receptors by means of 0.7 nM of ^3 H-p. aminoclonidine, the non-specific binding being determined by 1,000 nM of phentolamine. The results are given in Table II, column 3, and are expressed in terms of percentage of inhibition of the specific binding of 10^-7 molar compound concentration.
(§3) (2) The specific binding is the total binding less the nonspecific
(§4) binding. The total binding is the binding in the absence of nonradioactiv
(§5) drug. The nonspecific binding is the binding in the presence of 1,000 nM
(§6) of phentolamine. The products of the invention are tested at a
(§7) concentration of 10^-7 molar.

[3] = test system: bicuculline-induced tonic extension in mice; test: protection against bicuculline-induced tonic extension in mice; assay type: in vivo; details: Mus musculus, iv, 3 hours prior to bicuculline 0.7 mg/kg i.v., read-out: Anticonvulsive effect (versus Bicuculline) (% Protection)
Experimental: (§8) In the second study the anti-convulsant effect of the compounds of the present invention was examined in two seizure models; bicuculline-induced tonic extension in mice and 3-mercaptopropionic acid (3-MPA)-induced tonic extension in mice.
(§9) In the bicuculline study, the ability of the compounds of the present invention to protect against tonic extension (involving rigidity) was evaluated as follows. Each test compound was administered to a group of ten mice at a dose of 10 mg/kg, 3 hours prior to the i.v. administration of bicuculline (0.7 mg/kg). Anticonvulsant activity in this test is expressed as percentage of animals tested. The results are given in Table II, column 6, and indicate that several compounds display significant anticonvulsive activity in this test. The anticonvulsant effect of the compounds has also been tested with respect to the tonic extension induced by 3-mercaptopropionic acid (120 mg/kg subcutaneously) in mice.

[4] = test system: 3-mercaptopropionic acid (3-MPA)-induced tonic extension in mice; test: protection against 3-mercaptopropionic acid (3-MPA)-induced tonic extension in mice; assay type: in vivo; details: 100 mg/kg orally, 30 minutes prior to 3-MPA (120 mg/kg s.c.)
Experimental: as §8, §9
In the 3-MPA assay, the compounds of the present invention are administered orally at a dose of 100 mg/kg 30 minutes prior to administration of 3-MPA. Each compound was tested on a group of 5 mice; if more than 1 mouse was protected, a second group of 5 mice was tested.

[5] = biological target: T1, α2 -adrenergic receptors (Rattus norvegicus, UniProt P22909); test: binding to α2-adrenergic receptors on rat brain homogenates (3H-p. aminoclonidine); details: 10^-7 M; for inhibition at 0.1 µM: rat brain homogenates, 0.7 nM 3H-p. aminoclonidine, read-out: % Inhibition of the Specific Binding at 10^-7 M for α2 Recep.
T1 construct: from tissue; host or cells: rat brain homogenates
T1 sequence (P22909 1-465): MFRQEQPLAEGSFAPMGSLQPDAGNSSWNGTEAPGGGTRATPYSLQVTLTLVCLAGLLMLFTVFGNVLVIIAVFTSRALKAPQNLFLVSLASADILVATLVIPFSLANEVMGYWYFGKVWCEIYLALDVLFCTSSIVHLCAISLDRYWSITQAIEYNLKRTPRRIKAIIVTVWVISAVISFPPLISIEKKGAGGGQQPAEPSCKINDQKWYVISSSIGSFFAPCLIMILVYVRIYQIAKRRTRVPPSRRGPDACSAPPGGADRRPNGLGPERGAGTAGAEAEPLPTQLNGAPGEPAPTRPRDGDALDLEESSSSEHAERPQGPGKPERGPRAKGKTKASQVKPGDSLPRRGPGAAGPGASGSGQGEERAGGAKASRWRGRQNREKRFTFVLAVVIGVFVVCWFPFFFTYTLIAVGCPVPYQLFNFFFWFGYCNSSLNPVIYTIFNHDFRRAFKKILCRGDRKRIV
Experimental: as §1, §2, §3, §4, §5, §6, §7

[6] = test system: peripheral vascular α2 receptors; test: inhibition of the pressor effect of BHT 920 in pithed rats; assay type: in vivo, rat; details: 1 mg/kg i.v., BHT 920 30 μg/kg i.v.
Experimental: The α2 antagonist activity of the compounds is evaluated by the inhibition of the pressor effect (blood pressure elevation), of a specific α2 agonist agent, 4H-Thiazolo[4,5-b]azetin-2-amine, 5,6,7,8-tetrahydro-6-(2-propenyl)-, dihydrochloride, designated as BHT 920 at a concentration of 30 μg/kg i.v.) according to a method described by J. C. Van Meel et al., J. Pharmacol. Exp. Ther., 219, 760-767 (1981).
The compound to be tested is administered at 1 mg/kg i.v. The ability of the compounds tested to antagonize the pressor effects of BHT 920 is determined and expressed as percentage of inhibition. Any direct hypertensive (=α2 agonist) activity of the compounds under test can likewise be detected.

[7] = biological target: T2, α2 -adrenergic receptors (Cavia porcellus, UniProt Q60474); test: α2 antagonist and α2 agonist activity in isolated guinea pig ileum (clonidine)
T2 construct: from tissue; host or cells: isolated guinea pig ileum
T2 sequence (Q60474 1-464): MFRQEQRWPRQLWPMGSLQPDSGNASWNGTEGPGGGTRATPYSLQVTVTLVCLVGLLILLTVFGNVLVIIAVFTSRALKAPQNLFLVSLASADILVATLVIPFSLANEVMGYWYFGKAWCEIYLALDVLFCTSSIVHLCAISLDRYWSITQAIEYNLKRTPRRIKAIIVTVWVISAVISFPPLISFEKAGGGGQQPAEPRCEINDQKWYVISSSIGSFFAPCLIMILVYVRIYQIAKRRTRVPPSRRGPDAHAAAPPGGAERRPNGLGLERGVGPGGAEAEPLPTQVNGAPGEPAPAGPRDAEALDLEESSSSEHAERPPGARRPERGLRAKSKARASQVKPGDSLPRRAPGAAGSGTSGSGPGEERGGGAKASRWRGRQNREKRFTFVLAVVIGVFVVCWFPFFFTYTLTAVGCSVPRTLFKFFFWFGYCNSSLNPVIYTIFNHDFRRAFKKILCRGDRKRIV
Experimental: The α2 antagonist and α2 agonist activity of the compounds according to the invention was determined upon isolated organs according to a model described by G. M. Drews, Br. J. Pharmaco., 64, 293-300 (1978).
This model is based upon the principle that the stimulation of the cholinergic nervous transmissions of the guinea pig ileum causes the liberation of acetyl choline, which in turn causes contractions of the ileum.
The stimulation of the α2 -adrenergic receptors inhibits the activity of the cholinergic nerve and consequently reduces all response resulting from a timulation of the latter. Thus the contractions of the ileum induced by electric stimulation of the tissue are inhibited by clonidine, an α2 agonist, in proportion to the dose. This inhibition is specifically displaced by the α2 antagonists and not by the α1 antagonists.
The method utilized can be summarized as follows: three dose-response curves to clonidine are established at an interval of 60 minutes. Two concentrations of the product to be tested are added successively 10 minutes before the realization of the second and third clonidine curves. Next, after washing, a dose-response curve is established with the product to be tested.
The dose-response curves are calculated as a percentage of the maximum inhibition obtained for the first curve. In this system the products having an α2 antagonist activity displace the dose-response curve to clonidine. The α2 antagonist activity, expressed in pA2 value, shown in column 4, is calculated according to J. M. Van Rossum, Arch. Int. Pharmacodyn., 143, 299-300 (1963).
A reduction of the contractions induced by the tested product alone indicates an α2 agonist effect. This activity is expressed in--log ED50 (the--logarithm of the concentration of the product giving 50% of the maximum inhibition obtained with clonidine).
The higher the pA2 value, the higher the α2 antagonist activity; the higher the--log ED50 value (i.e., the pA2 agonist activity), the higher the α2 agonist activity.

[8] = acute toxicity after oral administration to mice (LD50); details: mouse, in vivo, 15 days mortality
Experimental: The acute toxicity of the compounds of the present invention was studied after oral administration to mice. The products to be tested, suspended in a 1% tragacanth gum mucilage, were administered by means of an intragastric probe to groups of three male mice which had fasted since the preceding day. The doses tested are a function of the effect observed and can vary from 3,000 to 3 mg/kg or less. The mortality was recorded for 15 days. The lethal dose for 50% of the animals (LD50) was calculated according to the method of J. Litchfield and F. Wilcoxon, J. Pharmacol. Exp. Ther., 96, 99 (1949) and expressed in mg/kg. The effect of the products on the behaviour of the animals is observed until 5 to 6 hours after the treatment indicated above and after 24 hours, using a method derived from that of S. Irwin, described by R. A. Turner, Screening Methods in Pharmacology, Chapter 3, pages 22-34, Academic Press, 1965. If anomalies are noted, the observation is prolonged and smaller doses are tested.

Compound | α2 Antagonist (% Inhibition of the Antihypertension of Clonidine) [1] | % Inhibition of the Specific Binding at 10^-7 M for α1 Recep. [2] | responders at 10 mg/kg [3] | anticonvulsant effect versus 3-MPA (in words) [4] | inhibition at 0.1 µM [5] | α2 antagonist activity, inhibition of pressor effect of BHT 920 (in words) [6] | EC50 ([7]; 50% of maximum inhibition obtained with clonidine, read-out: α2 Agonist Activity (-log ED50) (converted)) | Kb ([7]; versus clonidine, read-out: α2 Antagonist Activity (pA2) (converted)) | LD50 at 360 h [8] | affinity for α2 receptors (in words) ([5]; in vitro binding assay)
CC(O)(c1c[nH]cn1)C(c1ccccc1)c1ccccc1 (centres unmarked) [Compound 3] | 67% | 0% | 10% | potent anticonvulsant effect | 10% |  |  |  |  | 
Cc1[nH]cnc1CC(c1ccccc1)c1ccccc1 [Compound 7, 4(5)-(2,2-diphenylethyl)-5(4)-methyl imidazole] | 82% | 12% | 20% |  | 23% | very active as α2 antagonist agents | 2 µM | 0.0501 µM |  | 
CC(Cc1c[nH]cn1)(c1ccccc1)c1ccccc1 [Compound 10, 4(5)-[1-(2,2-diphenyl)-propyl]imidazole] | 46% | 0% | 27% | potent anticonvulsant effect | 6% |  |  |  |  | 
Cc1ccc(C(Cc2c[nH]cn2)c2ccccc2)cc1C (centres unmarked) [Compound 22] | 57% | 4% | 20% |  | 22% | very active as α2 antagonist agents |  |  | 155 mg/kg | 
COc1ccc(C(Cc2c[nH]cn2)c2ccc(OC)cc2)cc1 [Compound 23] | 40% | 0% | 10% |  | 20% | very active as α2 antagonist agents |  |  |  | 
Cc1ccc(C(Cc2c[nH]cn2)c2ccccc2)c(C)c1 (centres unmarked) [Compound 24] | 93% | 0% | 0% | potent anticonvulsant effect | 34% |  |  |  |  | 
Fc1cccc(F)c1C(Cc1c[nH]cn1)c1ccccc1 (centres unmarked) [Compound 27, 4(5)-{[2-(2-fluorophenyl)-2-(6'-fluorophenyl)]ethyl}imidazole] |  | 14% |  | potent anticonvulsant effect | 86% |  |  |  | 173 mg/kg | high affinity
